# In patent publication US11946094B2, “Combination therapies and methods of use thereof” (Augusta University Research Institute, Inc., priority 2017, dated 2024):
# Where two headings read alike, the source gives them in different places.
# Test system: OVCAR-8 cells
# Assay: Drug-siRNA combination screen: 346-compound anticancer library at 100 nM, CCK-8 viability
# Details: for synergy / antagonism of drug with gene knockdowns, in words: panel of 18 siRNA knockdowns
# [1] = OVCAR-8, drug 100 nM plus siRNA knockdown of each of 18 genes, distance VAB−VA×VB in SD, single gene contributes at most +5 / −5, negative = synergy, positive = antagonism
# [2] = OVCAR-8, drug 100 nM, siRNA knockdown
Compound,Score (sum of observed SD values for 18 genes) [1] [SD],further results
CS(=O)(=O)N1CCc2c(-c3cnc(N)nc3)nc(N3CCOCC3)nc21 [CH5132799],15.96,
Cc1c[nH]c(-c2cnc(NCCNc3ccc(C#N)cn3)nc2-c2ccc(Cl)cc2Cl)n1 [CHIR-99021],−2.4,
O=C(NOCC1CC1)c1ccc(F)c(F)c1Nc1ccc(I)cc1Cl [CI-1040],−45.66,"synergy / antagonism of drug with gene knockdowns, in words (OVCAR-8, drug 100 nM): among the top synergistic compounds"
COc1cc2ncnc(-n3nc(-c4ccccn4)nc3N)c2cc1OC [CP-466722],2.79,
C#Cc1cccc(Nc2ncnc3cc(OC)c(OCCCCCCC(=O)NO)cc23)c1 [CUDC-101],−46.83,"synergy / antagonism of drug with gene knockdowns, in words (OVCAR-8, drug 100 nM): mostly synergistic; number of genes (of 18) whose knockdown synergizes with the drug [2]: 11 genes"
Cc1nc(N)sc1-c1ccnc(Nc2ccc(N3CCOCC3)cc2)n1 [CYC116],−28.81,
Cc1ccc([C@@H]2O[C@H](CO)[C@@H](O)[C@H](O)[C@H]2O)cc1Cc1ccc(-c2ccc(F)cc2)s1 [Canagliflozin],−25.46,
N.N.O=C([O-])C1(C(=O)[O-])CCC1.[Pt+2] [Carboplatin],−24.62,
CCCCCCNC(=O)n1cc(F)c(=O)[nH]c1=O [Carmofur],−18.23,
COc1cc2c(Oc3ccc4[nH]c(C)cc4c3F)ncnc2cc1OCCCN1CCCC1 [Cediranib],−11.55,
Cc1cc(O)c2c(c1)C(=O)c1cccc(O)c1C2=O [Chrysophanol],−5.16,
N.N.[Cl][Pt][Cl] [Cisplatin],−21,
COC1=C(OC)C(=O)C(C/C=C(\C)CC/C=C(\C)CC/C=C(\C)CC/C=C(\C)CC/C=C(\C)CC/C=C(\C)CC/C=C(\C)CC/C=C(\C)CC/C=C(\C)CCC=C(C)C)=C(C)C1=O [Coenzyme Q10],−4.69,
CC1(COc2ccc3c(c2)ncn3-c2ccc3cccc(N4CCC(N)CC4)c3n2)COC1 [Crenolanib],−18.09,
CC1=C2C[C@H]3[C@@H](CC=C4C[C@@H](O)CC[C@@]43C)[C@@H]2CC[C@]12O[C@@H]1C[C@H](C)CN[C@H]1[C@H]2C [Cyclopamine],3.03,
NC(=O)CC[C@@H](N)C(=O)O [D-glutamine],0.27,
C[C@H](NC(=O)Cc1cc(F)cc(F)c1)C(=O)N[C@H](C(=O)OC(C)(C)C)c1ccccc1 [DAPT-(GSI-IX)],12.69,
COc1cc2ncnc(Nc3ccc(F)c(Cl)c3)c2cc1NC(=O)/C=C/CN1CCCCC1 [Dacomitinib],-68.29,number of genes (of 18) with high synergy with the drug [2]: 15 genes
CCC(CC)CC1(C(=O)Nc2ccccc2SC(=O)C(C)C)CCCCC1 [Dalcetrapid],−31.1,
CO[C@@H](C(=O)N1Cc2n[nH]c(NC(=O)c3ccc(N4CCN(C)CC4)cc3)c2C1)c1ccccc1 [Danusertib],−2.99,

Compound,Score (sum of observed SD values for 18 genes) [1] [SD],further results
CCOc1ccc(Cc2cc([C@@H]3O[C@H](CO)[C@@H](O)[C@H](O)[C@H]3O)ccc2Cl)cc1 [Dapagliflozin],−15.72,
CC(=O)OCC(=O)[C@@]1(O)[C@H](C)C[C@H]2[C@@H]3CCC4=CC(=O)C=C[C@]4(C)[C@@]3(F)[C@@H](O)C[C@@]21C [Dexamethasone Acetate],6.26,
C[C@@H]1C[C@H]2[C@@H]3CCC4=CC(=O)C=C[C@]4(C)[C@@]3(F)[C@@H](O)C[C@]2(C)[C@@]1(O)C(=O)CO [Dexamethasone],−3.28,
O=S(=O)([O-])CCSSCCS(=O)(=O)[O-].[Na+].[Na+] [Dimesna],−2.17,
CCN(CC)C(=S)SSC(=S)N(CC)CC [Disulfiram],37.83,
Cc1ccc(-n2nc(C(C)(C)C)cc2NC(=O)Nc2ccc(OCCN3CCOCC3)c3ccccc23)cc1 [Doramapimod],-50.99,number of genes (of 18) whose knockdown synergizes with the drug [2]: 11 genes
CCN[C@H]1C[C@H](C)S(=O)(=O)c2sc(S(N)(=O)=O)cc21.Cl [Dorzolamide HCI],9.66,
CN1CCN(c2ccc3nc(-c4c(N)c5c(F)cccc5[nH]c4=O)[nH]c3c2)CC1 [Dovitinib],−22.96,
C=C1/C(=C\C=C2/CCC[C@]3(C)[C@@H]([C@H](C)/C=C/[C@H](C)C(C)C)CC[C@@H]23)C[C@@H](O)C[C@@H]1O [Doxercalciferol],−0.53,
COc1cccc2c1C(=O)c1c(O)c3c(c(O)c1C2=O)C[C@@](O)(C(=O)CO)C[C@@H]3O[C@H]1C[C@H](N)[C@H](O)[C@H](C)O1 [Doxorubicin],15.09,
Cc1cc(Nc2cc(N3CCN(C)CC3)nc(/C=C/c3ccccc3)n2)n[nH]1 [ENMD-2076],−47.04,"synergy / antagonism of drug with gene knockdowns, in words (OVCAR-8, drug 100 nM): significant synergy"
NC(=O)C1CCCc2c1[nH]c1ccc(Cl)cc21 (stereo not shown) [EX 527],−22.45,
CN(NC(=O)CC(=O)NN(C)C(=S)c1ccccc1)C(=S)c1ccccc1 [Elesclomol],11.26,
Nc1ccccc1NC(=O)c1ccc(CNC(=O)OCc2cccnc2)cc1 [Entinostat],12.38,"synergy / antagonism of drug with gene knockdowns, in words (OVCAR-8, drug 100 nM): frequently antagonized by knockdown of specific genes"
CNC(=O)c1ccc(N2C(=S)N(c3ccc(C#N)c(C(F)(F)F)c3)C(=O)C2(C)C)cc1F [Enzalutamid],,Score (sum of observed SD values for 18 genes): −1.24 SD
Cn1cc(C2=C(c3cn(C4CCN(Cc5ccccn5)CC4)c4ccccc34)C(=O)NC2=O)c2ccccc21 [Enzastaurin],−6.53,
O=C(O[C@@H]1Cc2c(O)cc(O)cc2O[C@@H]1c1cc(O)c(O)c(O)c1)c1cc(O)c(O)c(O)c1 [Epigallocatechin gallate],3.64,
C/C(=C\c1csc(C)n1)[C@@H]1C[C@@H]2O[C@@H]2CCC[C@H](C)[C@H](O)[C@@H](C)C(=O)C(C)(C)[C@@H](O)CC(=O)O1 [Epothilone A],16.97,
C/C(=C\c1csc(C)n1)[C@@H]1C[C@@H]2O[C@]2(C)CCC[C@H](C)[C@H](O)[C@@H](C)C(=O)C(C)(C)[C@@H](O)CC(=O)O1 [Epothilone B],17.57,
Cc1c(C(=O)Nc2ccc(N3C[C@@H](C)O[C@@H](C)C3)nc2)cccc1-c1ccc(OC(F)(F)F)cc1 [Erismodegib],3.22,

Compound,Score (sum of observed SD values for 18 genes) [1] [SD],further results
C[C@]12CC[C@@H]3c4ccc(O)cc4CC[C@H]3[C@@H]1CC[C@@H]2O [Estradiol],−26.58,
C[C@]12CC[C@@H]3c4ccc(O)cc4CC[C@H]3[C@@H]1CCC2=O [Estrone],−21.19,
CO[C@H]1C[C@@H]2CC[C@@H](C)[C@@](O)(O2)C(=O)C(=O)N2CCCC[C@H]2C(=O)O[C@H]([C@H](C)C[C@@H]2CC[C@@H](OCCO)[C@H](OC)C2)CC(=O)[C@H](C)/C=C(\C)[C@@H](O)[C@@H](OC)C(=O)[C@H](C)C[C@H](C)/C=C/C=C/C=C/1C [Everolimus],,number of genes (of 18) whose knockdown synergizes with the drug [2]: 14 genes
O=C1[C@H](CC[C@H](O)c2ccc(F)cc2)[C@@H](c2ccc(O)cc2)N1c1ccc(F)cc1 [Ezetimibe],−5.31,
Cc1nc(-c2ccc(OCC(C)C)c(C#N)c2)sc1C(=O)O [Febuxostat],−18.04,
Cc1cnc(Nc2ccc(OCCN3CCCC3)cc2)nc1Nc1cccc(S(=O)(=O)NC(C)(C)C)c1 [Fedratinib],56.68,
CN1CC[C@H](c2c(O)cc(O)c3c(=O)cc(-c4ccccc4Cl)oc23)[C@H](O)C1 [Flavopiridol],−23.63,
Nc1nc(F)nc2c1ncn2[C@@H]1O[C@H](COP(=O)(O)O)[C@@H](O)[C@@H]1O [Fludarabine Phosphate],,Score (sum of observed SD values for 18 genes): −11.05 SD
CC(C)C(=O)Nc1ccc([N+](=O)[O-])c(C(F)(F)F)c1 [Flutamide],3.96,
CC(C)n1c(/C=C/C(O)CC(O)CC(=O)O)c(-c2ccc(F)cc2)c2ccccc21 (stereo not shown) [Fluvastatin],−20.51,
C[C@]12CCC(=O)C(O)=C1CC[C@@H]1[C@@H]2CC[C@]2(C)C(=O)CC[C@@H]12 [Formestane],−14.97,
COc1cc(Nc2ncc(F)c(Nc3ccc4c(n3)N(COP(=O)(O)O)C(=O)C(C)(C)O4)n2)cc(OC)c1OC [Fostamatinib],−4.27,
O=c1[nH]c(=O)n(C2CCCO2)cc1F (stereo not shown) [Ftorafur],−9.75,
OCCn1cc(-c2ccc3c(c2)CC/C3=N\O)c(-c2ccncc2)n1 [GDC - 0879],23.19,
CS(=O)(=O)N1CCN(Cc2cc3nc(-c4cccc5[nH]ncc45)nc(N4CCOCC4)c3s2)CC1 [GDC-0941],-58.02,"synergy / antagonism of drug with gene knockdowns, in words (OVCAR-8, drug 100 nM): synergy to the vast majority of genes"
C[C@@H](Oc1cc(-n2cnc3ccc(CN4CCN(C)CC4)cc32)sc1C(N)=O)c1ccccc1C(F)(F)F [GSK461364],4.65,
O=C(O)c1ccc(-c2c[nH]c3ncc(-c4ccccc4)cc23)cc1C1CCCC1 [GSK650394],12.12,
CCc1cc(Nc2nccc(-c3c(-c4ccc(OC)c(C(=O)Nc5c(F)cccc5F)c4)nc4ccccn34)n2)c(OC)cc1N1CCC(N2CCN(S(C)(=O)=O)CC2)CC1 [GSK1904529A],−10.83,
COc1ncc(-c2ccc3nccc(-c4ccnnc4)c3c2)cc1NS(=O)(=O)c1ccc(F)cc1F [GSK2126458],−22.4,
